Here are results for 2 compounds from patent publication US9549930B2, “Combined systemic and topical treatment of disordered and/or prodromal stage tissue” (priority 2013, dated 2017).

The conditions of data set [1]: cited from earlier work.
The next data set concerns Herpes Zoster (HZV). Nature of the data set: Case histories: systemic anti-viral drug alone for shingles. The data set is classed as in vivo, human. The text has this:
A person with a clinical history of recurrent Herpes Zoster (HZV) (or in layman's terms, shingles) experienced a recurrent outbreak after a stressful week at work and a weekend in the sun following a trip to a tanning booth. (It is known that stress and UV-B can both trigger herpetic outbreaks.) This subject had their first episode with HZV about one year prior. They were diagnosed by their physician and given a prescription for Zovirax (acyclovir). They took the Zovirax, but experienced lesions lasting 3-4 weeks and experienced over 12 weeks of post-herpetic neuralgia. The previous episode included all the classic stages, including weeping, but only involved several very small lesions.
A person was vacationing in California when they developed a red rash and subsequent lesions on their right buttock. They were diagnosed with herpes zoster (shingles) on day 2, after first signs and symptoms were noted, and was prescribed valacyclovir (Valtrex) per label.
As […] to get to their home from California, they and their spouse elected to extend their time in California.
The patient initially went to the doctor in the early stages of the infection when it was only on their leg. The doctor diagnosed the condition as shingles and prescribed the patient Valtrex. […] The bumps were smaller but they kept spreading. The doctor advised them to keep taking the Valtrex. Once the patient finished the first prescription of Valtrex, the doctor provided a second Valtrex prescription. […] The sores remained the same size although the sores on the patient's leg were much larger than on their lower trunk.
A person had shingles on their neck and shoulders. Their sibling is a physician and diagnosed shingles and prescribed a nucleoside drug according to FDA approved labeling. The lesions had started to propagate down the affected dermatomes of the shoulder and neck. The lesions continued to progress despite anti-viral therapy.

The conditions of data set [2]: cited from earlier work. This is another data set of the same source.
Where [3] appears, read: Example 4, person, first HZV episode, Zovirax alone.

Turning to `Nc1nc2c(ncn2COCCO)c(=O)[nH]1` [Aciclovir, 9-(2-hydroxyethoxymethyl)guanine], in data set [1], the solubility in water result is recorded as “poorly soluble in water”. In the data set with Herpes Zoster (HZV) (setting [3]), the “duration of post-herpetic neuralgia” value is “over 12 weeks” and the lesions lasting is recorded as 3-4 weeks. Moreover, the “absorption from the gastrointestinal tract” value in data set [2] (after oral administration) is on record as “poorly absorbed”.
In the case of `CC(C)[C@H](N)C(=O)OCCOCn1cnc2c(=O)[nH]c(N)nc21` [Valtrex], in the data set with Herpes Zoster (HZV) (Example 6, Valtrex regimen as prescribed), the “state on day 18 after first signs, after completed regimen” value is “still had open herpetic lesions”. Besides, in the data set on Herpes Zoster (HZV) (Example 6, person, Valtrex per label from day 2), the “effect on shingles initially” value was “little noticeable effect initially”. The “state of sores after first prescription finished” value in the data set on Herpes Zoster (HZV) (Example 8, Valtrex alone) was “still open and large”. Moreover, the “course of lesions shortly after first doses” value in the data set with Herpes Zoster (HZV) (Example 8, person, Valtrex alone) is “the lesions spread up the patient's leg and to their lower trunk”. The bioavailability entry in data set [2] (oral administration, shown in U.S. Pat. No. 4,957,924) is given as “improved bioavailability”.
